In patent US20050203290A1, “Crystalline form of sucralose, and method for producing it” (priority 2003, published 2005):

Legend:
[1] = accelerated aging test (shelf life of crystalline sucralose); assay type: physicochemical
Description: Shelf life of crystalline sucralose is commonly estimated by performing an accelerated aging test. In this test the crystals are maintained in a controlled atmosphere at 50° C. (122° F.), and sampled periodically. Each sample is dissolved in water and the pH of a 10% solution is tracked to determine the elapsed time at which the pH drops by one unit, indicating a slight sucralose decomposition. Crystals made by traditional methods are considered stable when such decomposition is not indicated until at least 3 days in this test. This is considered equivalent to a shelf life under ambient conditions of about 8 years.

[2] = particle size analysis by light scattering (Coulter LS100Q); assay type: physicochemical; settings: Isopar G isoparaffin fluid as dispersing medium
Description: Particle size analysis of the product is performed using a Coulter LS100Q Particle Size Analyzer, available from Coulter Corporation of Miami, Florida. The analyzer operates by light scattering, using Isopar™ G isoparaffin fluid, available from ExxonMobil Chemical of Houston, Tex., as the dispersing medium. The sucralose product crystals have a particle size distribution such that 90 wt. % of the sample has a particle size less than 62 μm, while 10 wt. % has a particle size less than from about 4 μm, with a mean of 30 μm.

Row | elapsed time until pH drop under accelerated conditions ([1]; 50° C., dried at the preferred temperature, moisture levels typical of old crystals) [days] | stability in accelerated aging test: elapsed time until pH of a 10% solution drops by one unit ([1]; crystals kept at 50° C. (122° F.) in controlled atmosphere, Example product dried at about 60° F., moisture about 0.5 wt. %) | shelf life under typical ambient storage conditions corresponding to the accelerated aging result ([1]; extrapolated from accelerated aging test at 50° C.) | mean particle size [2] [μm] | particle size below which 10 wt. % of the sample lies [2] [μm] | particle size below which 90 wt. % of the sample lies [2] | Structure (SMILES)
1 | 3 |  |  |  |  |  | OC[C@H]1O[C@H](O[C@]2(CCl)O[C@H](CCl)[C@@H](O)[C@@H]2O)[C@H](O)[C@@H](O)[C@H]1Cl [old crystals, 4,1′,6′-trichloro-4,1′,6′-trideoxygalactosucrose, reference compound]
2 |  | at least 3 days | about 8 years | 30 | < 4 | less than 62 μm | OC[C@H]1O[C@H](O[C@]2(CCl)O[C@H](CCl)[C@@H](O)[C@@H]2O)[C@H](O)[C@@H](O)[C@H]1Cl [sucralose product crystals, 4,1′,6′-trichloro-4,1′,6′-trideoxygalactosucrose]
